≈ marks a conversion by molar mass, not a printed value.
Key:
[1] = Solubility of iniparib in purified water; assay type: physicochemical
[2] = biological target: poly [ADP-ribose] polymerase 1 (PARP1) (Homo sapiens, UniProt P09874); conditions: observed in several studies; cited from earlier work
[3] = tissues including brain and cerebrospinal fluid (CSF); cited from earlier work
[4] = system: cancer cells, including drug resistant cell lines; conditions: cited from earlier work

Chain of poly [ADP-ribose] polymerase 1 (PARP1) (P09874 whole entry, species assumed): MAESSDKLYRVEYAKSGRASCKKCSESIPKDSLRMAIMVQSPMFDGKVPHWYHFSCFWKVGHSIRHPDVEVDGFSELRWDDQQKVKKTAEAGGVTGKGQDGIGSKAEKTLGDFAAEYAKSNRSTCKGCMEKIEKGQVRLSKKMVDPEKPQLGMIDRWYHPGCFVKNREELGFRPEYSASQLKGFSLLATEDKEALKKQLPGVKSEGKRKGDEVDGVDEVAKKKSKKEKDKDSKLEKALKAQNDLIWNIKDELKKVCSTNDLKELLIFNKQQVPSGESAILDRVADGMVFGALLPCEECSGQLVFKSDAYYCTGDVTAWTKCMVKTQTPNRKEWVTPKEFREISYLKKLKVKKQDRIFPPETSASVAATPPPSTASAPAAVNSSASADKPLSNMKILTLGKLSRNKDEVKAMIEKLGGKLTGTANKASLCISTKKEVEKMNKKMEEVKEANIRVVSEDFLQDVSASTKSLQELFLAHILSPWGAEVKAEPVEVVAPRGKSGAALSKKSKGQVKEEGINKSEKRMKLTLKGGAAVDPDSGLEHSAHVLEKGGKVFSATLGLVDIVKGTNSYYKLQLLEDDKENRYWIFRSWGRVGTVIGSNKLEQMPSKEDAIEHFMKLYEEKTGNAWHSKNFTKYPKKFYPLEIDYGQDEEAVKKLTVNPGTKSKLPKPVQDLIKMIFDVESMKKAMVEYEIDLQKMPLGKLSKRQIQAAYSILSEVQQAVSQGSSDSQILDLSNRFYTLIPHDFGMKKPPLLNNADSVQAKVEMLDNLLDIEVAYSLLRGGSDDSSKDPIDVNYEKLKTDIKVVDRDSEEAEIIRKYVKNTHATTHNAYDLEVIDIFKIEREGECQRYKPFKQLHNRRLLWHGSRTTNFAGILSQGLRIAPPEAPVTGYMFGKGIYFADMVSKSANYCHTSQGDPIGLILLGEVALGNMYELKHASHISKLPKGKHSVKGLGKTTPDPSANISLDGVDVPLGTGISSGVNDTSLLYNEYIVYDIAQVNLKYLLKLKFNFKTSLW

**Q.** What does the source list for `NC(=O)c1ccc(I)c([N+](=O)[O-])c1` [Iniparib, 4-iodo-3-nitrobenzamide]?
**A.** solubility [1]: ~182 µg/mL (≈ 623 µM); potency against PARP1 [2]: low potency; distribution into tissues [3]: distributes rapidly and widely into tissues, including the brain and cerebrospinal fluid (CSF); activity against cancer cells in vitro [4]: active against a broad range of cancer cells in vitro

Source: US11628144B2, “Iniparib formulations and uses thereof” (TriAct Therapeutics, Inc., priority 2017, dated 2023)
